From PMC8467814, “RSK1 vs. RSK2 Inhibitory Activity of the Marine β-Carboline Alkaloid Manzamine A: A Biochemical, Cervical Cancer Protein Expression, and Computational Study” (Marine Drugs, 2021)

Tests used:
[1] = biological target: T1, RSK2 (90 kDa ribosomal protein S6 kinase 2) (Homo sapiens, UniProt P51812); test: radiometric […]-ATP kinase assay with KKLNRTLSVA peptide, P81 filter; format: biochemical
T1 construct: gene RPS6KA3

[2] = biological target: T2, RSK1 (90 kDa ribosomal protein S6 kinase 1; MAPKAP-K1α) (Rattus norvegicus, UniProt Q63531); test: radiometric […]-ATP kinase assay with KKLNRTLSVA peptide, P81 filter; also […] inhibition at […] in kinase panel; format: biochemical
T2 construct: gene Rps6ka1
T2 sequence (Q63531 whole entry): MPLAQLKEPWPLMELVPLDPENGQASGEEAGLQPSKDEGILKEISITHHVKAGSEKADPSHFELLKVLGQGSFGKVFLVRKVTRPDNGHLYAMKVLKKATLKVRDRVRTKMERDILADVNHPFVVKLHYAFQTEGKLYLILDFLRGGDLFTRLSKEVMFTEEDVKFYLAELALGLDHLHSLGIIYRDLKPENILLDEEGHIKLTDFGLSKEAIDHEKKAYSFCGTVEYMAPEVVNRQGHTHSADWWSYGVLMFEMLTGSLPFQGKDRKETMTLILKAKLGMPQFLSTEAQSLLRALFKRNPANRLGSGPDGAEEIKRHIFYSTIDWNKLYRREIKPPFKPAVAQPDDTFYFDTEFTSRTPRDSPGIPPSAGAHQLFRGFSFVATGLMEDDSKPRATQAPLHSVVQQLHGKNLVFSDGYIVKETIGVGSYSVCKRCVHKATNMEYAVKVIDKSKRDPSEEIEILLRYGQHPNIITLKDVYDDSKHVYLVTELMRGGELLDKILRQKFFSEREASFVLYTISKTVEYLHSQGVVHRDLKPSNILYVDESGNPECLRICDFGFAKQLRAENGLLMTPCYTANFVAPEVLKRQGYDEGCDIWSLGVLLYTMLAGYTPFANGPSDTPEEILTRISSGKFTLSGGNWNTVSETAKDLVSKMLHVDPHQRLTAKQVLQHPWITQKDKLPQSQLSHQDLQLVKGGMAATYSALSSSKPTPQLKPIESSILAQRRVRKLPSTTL

T1 sequence (P51812 whole entry): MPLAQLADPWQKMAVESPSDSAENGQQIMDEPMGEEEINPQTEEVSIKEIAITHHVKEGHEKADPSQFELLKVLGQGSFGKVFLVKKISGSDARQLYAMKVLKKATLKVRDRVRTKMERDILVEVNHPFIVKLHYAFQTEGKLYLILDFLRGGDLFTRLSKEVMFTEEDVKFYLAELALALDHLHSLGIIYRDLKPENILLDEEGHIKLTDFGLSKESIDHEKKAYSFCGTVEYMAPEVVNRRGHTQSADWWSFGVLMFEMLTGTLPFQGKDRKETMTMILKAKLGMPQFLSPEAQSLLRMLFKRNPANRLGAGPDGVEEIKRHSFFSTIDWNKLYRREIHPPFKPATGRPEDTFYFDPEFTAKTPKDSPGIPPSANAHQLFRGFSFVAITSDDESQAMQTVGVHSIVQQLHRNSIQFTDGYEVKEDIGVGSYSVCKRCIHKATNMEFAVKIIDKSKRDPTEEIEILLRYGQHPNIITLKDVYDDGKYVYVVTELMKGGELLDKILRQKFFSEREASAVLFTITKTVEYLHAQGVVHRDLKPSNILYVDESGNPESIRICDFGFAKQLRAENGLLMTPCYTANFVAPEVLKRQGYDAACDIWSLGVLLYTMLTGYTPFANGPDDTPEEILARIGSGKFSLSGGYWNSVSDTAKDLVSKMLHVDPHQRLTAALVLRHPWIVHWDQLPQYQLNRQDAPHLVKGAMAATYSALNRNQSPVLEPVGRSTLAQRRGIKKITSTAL

Q: For `O[C@]12C=C(c3nccc4c3[nH]c3ccccc34)[C@@H]3CCN(CCCC/C=C\CC1)C[C@@]31C[C@@H]3/C=C\CCCCN3[C@H]12` [MZA, Manzamine A], which IC50 [1] is on record?
A: Its IC50 is 108 µM.

Q: And the IC50 [2]?
A: Its IC50 is 15 µM.
